Experimental data taken from patent publication US20230241211A1, “BISPECIFIC ANTIBODY AGAINST CD3 AND CD20 IN COMBINATION THERAPY FOR TREATING DIFFUSE LARGE B-CELL LYMPHOMA” (GENMAB A/S, priority 2022, published 2023).

Columns and labels:
T cells = test: T-cell activation with immobilized anti-CD3 in presence or absence of lenalidomide; assay type: cell-based; details: CD3 crosslinking with immobilized anti-CD3, lenalidomide 5 or 50 μM, 3 days; compared to no lenalidomide
Method: T cells were pre-incubated with assay medium or lenalidomide in the absence or presence of CD3 crosslinking by immobilized anti-CD3 for 3 days (as indicated on the x-axes), after which upregulation of CD69, CD25, PD-1 and LAMP-1 on CD4^+ and CD8^+ T cells was determined by flow cytometry. Data shown are geomean fluorescence intensities (FI) for four donors (each circle represents one condition for one donor). Pre-incubation conditions are shown on the x-axis.
(§1) Briefly, T cells were activated with immobilized anti-CD3 in the presence (5 or 50 μM) or absence of lenalidomide for 3 days. […] T cells that were activated in the presence or absence of lenalidomide were subsequently tested for their cytotoxic capacity in response to epcoritamab.

[1] = system: CD20-expressing Daudi cells; test: Epcoritamab-induced T-cell-mediated cytotoxicity assay with lenalidomide-pretreated T cells; assay type: cell-based; details: T cells pre-treated with lenalidomide (5 or 50 μM) and anti-CD3 for 3 days, Daudi target cells, E:T ratio 2:1
Method: T cells were incubated with (5 or 50 μM) or without lenalidomide in the absence or presence of immobilized anti-CD3 for 3 days. […] Data shown are average percentages cytotoxicity ±SD of duplicates, normalized to medium control (no antibody, no lenalidomide).
as §1

[2] = system: relapsed or refractory (R/R) B-NHL; highly refractory large B-cell lymphoma; details: epcoritamab monotherapy, n=157, cited from earlier work
[3] = highly refractory large B-cell lymphoma

Compound | T-cell activation (upregulation of activation markers CD69, CD25 on the T cell surface, release of granzyme B and IFNγ) (T cells) | activity at lower epcoritamab concentrations [1] | maximum percent cytotoxicity ([1]; versus T cells without lenalidomide) | complete response (CR) rate [2, 3] [%] | median duration of response (DOR) [2, 3] [months] | overall response rate (ORR) [2, 3] [%] | safety profile [2]
Nc1cccc2c1CN(C1CCC(=O)NC1=O)C2=O (stereo not shown) [lenalidomide, 3-(4-Amino-1-oxo-1,3-dihydro-2H-isoindol-2-yl) piperidine-2,6-dione] | increased T-cell activation |  |  |  |  |  | 
epcoritamab: IgG1 bispecific CD3×CD20 antibody; heavy/light chain pairs SEQ ID NOs: 24/25 and 26/27; CAS 2134641-34-0 |  | higher activity at lower epcoritamab concentrations | Higher maximum percent cytotoxicity | 39 | 12 | 63 | manageable safety profile
